# Laboratory results as given in patent publication US20240327320A1, “NOVEL ROUTES OF CHEMICAL SYNTHESIS OF 20S(OH)D3, 20S,25(OH)2D3, 20S,23S(OH)2D3, AND 20S,23R(OH)2D3 AND THEIR MODIFICATION OF THE IMMUNE ACTIVITY OF PBMCS” (United State Government as represen ted by the Department …, priority 2023, published 2024).
# What was measured:
# [1] = tested on: CD4 and CD8 T cells from human peripheral blood; assay: T cell activation in PBMC, flow cytometry with TriMAP/FlowSOM; type: cell-based; details: 10^-7 M, 24 h, anti-CD3 and anti-CD28, compared to ethanol treated cells
# Method: Human peripheral blood mononuclear cells (PBMC) from two healthy individuals were obtained from a pre-existing respository. Their use was approved by the University of Alabama at Birmingham Institutional Review Board (Human Subject Assurance Number FWA00005960) as an exempt protocol #4 (Dr C. Raman, P.I.). […] Informed consent is waived in accord with 45CFR46.116 (d). In 48 well plates, 0.5×10^6 PBMC/well were cultured in RPMI1640 containing, 5% charcoal adsorbed FBS and antibiotics and T cells were activated using […] anti-CD3 (clone 145-2C11) and 1 μg/ml anti-CD28 (clone 37.51) for 24 h (Janjetovic Z, et. al., (2021) Endocrinology 162(1), Chaiprasongsuk A, et. al., (2020) Free Radic Biol Med 155 87-98, Slominski A T, et. al., (2011) Am J Physiol Cell Physiol 300(3) C526-41, McGuire D J, et. al., (2014) Eur J Immunol 44(4) 1137-42, Sestero C M, et. al., (2012) J Immunol 189(6) 2918-30). The culture was treated with 10^-7 M 20S(OH)D3, 20S,25(OH)2D3, 20S,23S(OH)2D3, 20S,23R(OH)2D3 or 1α,25(OH)2D3 (Sigma-Aldrich, St. Louis, MO, USA) dissolved in ethanol and diluted in culture medium at the same time of addition of anti-CD3 and anti-CD28. The vehicle control comprised of 0.1% ethanol. At the end of assay the cells were stained with antibodies to CD4 (clone RPA-T4, BV-421), CD19 (clone HB19, BV-510), CD14 (clone HCD14, Alexa 700), CD137 (clone 4B4-1, BV605), CD8a (clone RPA-T8, FITC), ICOS (clone C398.4A, PE/Dazzle), PD1 (clone NAT105, PE), CD80 (clone 2D10, PerCP/Cy5.5), OX40 (clone ACT35, PE/Cy7), CD69 (clone FN50, APC), HLA-DR (clone L243, APC/Fire 750). All antibodies were from Biolegend except anti-CD8 was from Thermo Fisher. The stained cells were analyzed using a CytoFLEX (Beckman Coulter) flow cytometer.
# For unbiased analysis of the multidimensional data, acomputational algorithm-based approaches was utilized (Quintelier K, et. al., (2021) Nature Protocols 16(8) 3775-3801). The flow cytometry standard (FCS) data files from each individual and treatment (two individuals, six treatments including ethanol, a total of 12 data files) were processed through the following workflow—compensation, gating on live cells, gating for single cells and subtraction of CD19+(B cells) and CD14+(monocytes). B cells and monocytes were removed from the analysis because only T cells (CD4+ and CD8+) are activated by anti-CD3 and anti-CD28. After these initial gating steps, a key word was added to each of the 12 FCS files, down sampled to 50,000 events/sample and concatenated. Down sampling ascertains that each sample is equally weighted, and concatenation ascertains that statistical analysis is applied equally. The concatenated files were first subjected to TriMAP analysis, a computational algorithm that clusters populations based on triplet relatedness followed by FlowSOM algorithm-based clustering (Quintelier K, et. al., (2021) Nature Protocols 16(8) 3775-3801). To perform these analyses, plugins within FlowJo (BD, CA, USA) were used.
# T cells in peripheral blood from two healthy individuals were activated with anti-CD3 and anti-CD28 in the absence (ethanol) or presence of 10^−7 M of each of the vitamin D3 secosteroids for 24 h. The cells were stained for lineage markers (CD4, CD8, CD19, CD14) and a panel of activation induced markers (CD69, ICOS, OX40, CD137, PD1, HLADR) and expression data were collected using a flow cytometer. The gating strategy was live, single cell followed by CD4 and CD8 T cell populations. […]
# [2] = tested on: CYP24A1 (downstream target of the activated VDR); assay: CYP24A1 expression, qPCR of downstream enzymes; type: cell-based; details: FIG. 8C
# Method: RNA isolation and reverse transcription were performed as described previously (Slominski A T, et. al., (2021) Sci Rep 11(1) 8002). Quantitative RT-PCR was carried out using Sybr green Master Mix (Thermo Scientific, Waltham, MA), in triplicates as previously described (Slominski A T, et. al., (2021) Sci Rep 11(1) 8002; Janjetovic Z, et. al., (2014) J Pineal Res 57(1) 90-102). Human epidermal keratinocytes (HEKn) isolated from foreskin of white neonates were cultured until the third passage before treatment as described in the literature (Chaiprasongsuk A, et. al., (2019) Redox Biol 24 101206; Janjetovic Z, et. al., (2009) PloS one 4(6) e5988). Cells were treated with vitamin D3 derivatives for 8 h or 24 h and harvested for RNA isolation. Approximately 300 ng of RNA was used for cDNA synthesis and an equal amount of cDNA was used for PCR reactions. Cyclophilin B or GAPDH was used as an internal control. Primers sequences are listed in (Chaiprasongsuk A, et. al., (2020) Free Radic Biol Med 155 87-9845, Slominski A T, et. al., (2017) Sci Rep 7(1) 11434). Reactions were done in triplicate.
# To better define the properties of the newly synthesized secosteroids, their activities on the VDR, AhR and LXR were tested by performing functional assays which were further validated by qPCR of downstream enzymes (FIGS. 8A-F) and molecular modeling (FIG. 9-13). Binding affinities of top-scored docking complexes of vitamin D3 hydroxy derivatives with VDR, AhR, LXRs (LXRα, LXRβ) and RORs (RORα, RORγ) from molecular docking are presented in FIG. 9, known ligands for each receptor were used as controls.
Structure (SMILES),"CD4 T cells of population 4 (down modulated CD4, increased CD69 and ICOS) [1]",CYP24A1 expression [2]
"C=C1CC[C@H](O)C/C1=C/C=C1\CCC[C@@]2(C)[C@H]1CC[C@@H]2[C@@](C)(O)CCCC(C)C [20S(OH)D3, (20S)-20-Hydroxyvitamin D3]",increased the proportion of cells with population 4 phenotype,
"C=C1CC[C@H](O)C/C1=C/C=C1\CCC[C@@]2(C)[C@H]1CC[C@@H]2[C@@](C)(O)C[C@H](O)CC(C)C [20S,23R(OH)2D3, (20S,23R)-20,23-Dihydroxyvitamin D3]",,"significantly less expression than 1α,25(OH)2D3"
"C=C1CC[C@H](O)C/C1=C/C=C1\CCC[C@@]2(C)[C@H]1CC[C@@H]2[C@@](C)(O)C[C@@H](O)CC(C)C [20S,23S(OH)2D3, (20S,23S)-20,23-Dihydroxyvitamin D3]",fewer cells,"significantly less expression than 1α,25(OH)2D3"
"C=C1CC[C@H](O)C/C1=C/C=C1\CCC[C@@]2(C)[C@H]1CC[C@@H]2[C@@](C)(O)CCCC(C)(C)O [20S,25(OH)2D3, (20S)-20,25-Dihydroxyvitamin D3]",fewer cells,much greater stimulation of CYP24A1 expression than 20S(OH)D3
